# Source: patent US20220324835A1 (Nurix Therapeutics, Inc., priority 2018, published 2022)
# pIC50, pKd: −log10 of the molar value.
# Assays:
# Cbl-b (residues 36-427) = Cbl-b (residues 36-427) (Homo sapiens, UniProt Q13191); assay: Cbl-b binding assay (SPR, Biacore T200); details: 20° C., 1:1 binding model
# How it was run: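 NeutrAvidin capture chip, 20° C; 50 s injections at 50 μl/min, 90-180 s dissociation; 0.3 M NaCl regeneration. Asterisked column: 50 mM NaCl buffer and 30 nM Src kinase in place of 100 mM NaCl and 60 nM Src kinase. 1:1 fit.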
# Cbl-b [1] = target: T1, Cbl-b (Homo sapiens, UniProt Q13191); assay: Cbl-b activity assay (Cbl-b inhibition assay), TR-FRET of Cbl-b interaction with UbcH5B-Ub; type: biochemical; details: for pIC50: assay buffer with 100 mM NaCl, 60 nM Src kinase, read-out: Cbl-b activity IC50; for IC50: * assay buffer containing 50 mM NaCl instead of 100 mM NaCl and 30 nM Src kinase instead of 60 nM, read-out: Cbl-b activity IC50 (μM)*
# T1 sequence (Q13191 36-427): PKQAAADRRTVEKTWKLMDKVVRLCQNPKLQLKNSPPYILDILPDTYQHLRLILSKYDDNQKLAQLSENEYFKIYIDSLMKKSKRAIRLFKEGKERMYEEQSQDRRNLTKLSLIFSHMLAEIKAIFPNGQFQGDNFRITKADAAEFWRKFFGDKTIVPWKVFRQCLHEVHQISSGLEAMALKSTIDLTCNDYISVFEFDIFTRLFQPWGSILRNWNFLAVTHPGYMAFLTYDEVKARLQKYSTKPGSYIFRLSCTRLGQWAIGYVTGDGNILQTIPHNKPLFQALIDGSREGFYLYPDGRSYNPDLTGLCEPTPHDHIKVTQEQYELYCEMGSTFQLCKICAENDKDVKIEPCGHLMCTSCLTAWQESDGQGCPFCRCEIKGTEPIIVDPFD
# How it was run: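 Compound-treated Cbl-b was incubated 1.5 h with Src kinase (60 nM final; 30 nM for asterisked values, which also used 50 mM instead of 100 mM NaCl), 1 mM ATP and 5 mM MgCl2. Binding to fluorescent Ub-loaded UbcH5B (C85K mutant) was then read by TR-FRET after 1 h more.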
# Cbl-b [2] = target: T1, Cbl-b; assay: Cbl-b inhibition assay (Cbl-b activity assay, FRET, Biological Example 1; 100 mM NaCl, 60 nM Src kinase); type: biochemical; details: upper bound stated in text lists; read-out: IC50 values in the Cbl-b inhibition assay of Biological Example 1
# How it was run: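 TR-FRET assay using N-terminal biotinylated Avi-tagged Cbl-b bound to streptavidin-terbium, Src kinase for Cbl-b phosphorylation, and UbcH5B irreversibly conjugated to Bodipy-Fluorescein-ubiquitin. Phosphorylated Cbl-b binds UbcH5B-Ub, bringing the fluorophores together; inhibition is read as loss of FRET signal.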
# Sequence of Cbl-b (residues 36-427) (Q13191 36-427): as above
SMILES,pKd (Cbl-b (residues 36-427)),pIC50 (Cbl-b [1]),pIC50 (Cbl-b [2]),IC50 (Cbl-b [1]) [µM]
"C[C@H](Cc1nncn1C)c1cccc(NC(=O)c2cc(C(=O)N3C[C@@H](F)[C@@H](O)C3)ccn2)c1 [Compound 246, cis-4-(3-fluoro-4-hydroxypyrrolidine-1-carbonyl)-N-(3-((R)-1-(4-methyl-4H-1,2,4-triazol-3-yl)propan-2-yl)phenyl)picolinamide]",5.52 to 6.00,5.52 to 6.00,≥ 5.00,
"CO[C@@H]1CCN(C(=O)c2ccnc(C(=O)Nc3cccc([C@H](C)Sc4nncn4C)c3)c2)C1 [Compound 141, 4-((R)-3-methoxypyrrolidine-1-carbonyl)-N-(3-((S)-1-((4-methyl-4H-1,2,4-triazol-3-yl)thio)ethyl)phenyl)picolinamide]",5.00 to 5.52,5.00 to 5.52,≥ 5.00,
"C[C@@H](Cc1nncn1C)c1ccnc(N2Cc3c(cccc3C(F)(F)F)C2=O)c1 [Compound 304a, (S)-2-(4-(1-(4-methyl-4H-1,2,4-triazol-3-yl)propan-2-yl)pyridin-2-yl)-4-(trifluoromethyl)isoindolin-1-one]",< 5.00,5.00 to 5.52,≥ 5.00,
"C[C@H](Sc1nncn1C)c1cccc(NC(=O)c2cc(NS(=O)(=O)CCO)ccn2)c1 [Compound 86, 4-(2-hydroxyethylsulfonylamino)-N-[3-[(1S)-1-[(4-methyl-1,2,4-triazol-3-yl)sulfanyl]ethyl]phenyl]pyridine-2-carboxamide]",< 5.00,5.00 to 5.52,≥ 5.00,
"Cc1cncc(C(=O)Nc2cccc([C@H](C)Sc3nncn3C)c2)n1 [Compound 82, (S)-6-methyl-N-(3-(1-((4-methyl-4H-1,2,4-triazol-3-yl)thio)ethyl)phenyl)pyrazine-2-carboxamide]",5.00 to 5.52,5.52 to 6.00,≥ 5.00,
"C[C@H](Sc1nncn1C)c1cccc(NC(=O)c2cc(C(=O)N3CCCC3)ccn2)c1 [Compound 138, (S)-N-(3-(1-((4-methyl-4H-1,2,4-triazol-3-yl)thio)ethyl)phenyl)-4-(pyrrolidine-1-carbonyl)picolinamide]",< 5.00,5.00 to 5.52,≥ 5.00,
"CC(Sc1nncn1C)c1cccc(N2Cc3ccc(Cl)cc3C2=O)c1 (stereo not shown) [Compound 163, 6-chloro-2-[3-[1-[(4-methyl-1,2,4-triazol-3-yl)sulfanyl]ethyl]phenyl]isoindolin-1-one]",5.00 to 5.52,5.00 to 5.52,≥ 5.00,3 to 10
"C[C@@H](Cc1nncn1C)c1cccc(NC(=O)c2cccc(C(F)(F)F)n2)c1 [Compound 183b, (S)-N-(3-(1-(4-methyl-4H-1,2,4-triazol-3-yl)propan-2-yl)phenyl)-6-(trifluoromethyl)picolinamide]",5.00 to 5.52,6.52 to 7.00,≥ 5.00,
"C[C@H](Cc1nccn1C)c1cccc(N2Cc3c(cccc3C(F)(F)F)C2=O)c1 [Compound 267a, (R)-2-(3-(1-(1-methyl-1H-imidazol-2-yl)propan-2-yl)phenyl)-4-(trifluoromethyl)isoindolin-1-one]",5.00 to 5.52,5.52 to 6.00,≥ 5.00,
"CC(Cc1nccn1C)c1cccc(NC(=O)c2cc(C(=O)N3CC[C@H](O)C3)ccn2)c1 (stereo partly drawn) [Compound 252, 4-((S)-3-hydroxypyrrolidine-1-carbonyl)-N-(3-(1-(1-methyl-s1H-imidazol-2-yl)propan-2-yl)phenyl)picolinamide]",5.52 to 6.00,5.00 to 5.52,≥ 5.00,
"CC(Sc1nncn1C)c1ccc(F)c(NC(=O)c2cccc(C(F)(F)F)n2)c1 (stereo not shown) [Compound 95, N-(2-fluoro-5-(1-((4-methyl-4H-1,2,4-triazol-3-yl)thio)ethyl)phenyl)-6-(trifluoromethyl)picolinamide]",5.52 to 6.00,5.52 to 6.00,≥ 5.00,
"CC(Sc1nncn1C)c1cc(N)nc(N2Cc3c(cccc3C(F)(F)F)C2=O)c1 (stereo not shown) [Compound 175, 2-[6-amino-4-[1-[(4-methyl-1,2,4-triazol-3-yl)sulfanyl]ethyl]-2-pyridyl]-4-(trifluoromethyl)isoindolin-1-one]",5.00 to 5.52,5.00 to 5.52,≥ 5.00,
"C[C@@H](Sc1nncn1C)c1cccc(N2Cc3c(cccc3C(F)(F)F)C2=O)c1 [Compound 166b, (R)-2-(3-(1-(4-methyl-4H-1,2,4-triazol-3-ylthio)ethyl)phenyl)-4-(trifluoromethyl)isoindolin-1-one]",5.00 to 5.52,5.52 to 6.00,≥ 5.00,
"C[C@H](Sc1nncn1C)c1cccc(NC(=O)c2cc(C(F)(F)F)c(Cl)cn2)c1 [Compound 40, (S)-5-Chloro-N-(3-(1-((4-methyl-4H-1,2,4-triazol-3-yl)thio)ethyl)phenyl)-4-(trifluoromethyl)picolinamide]",5.00 to 5.52,5.52 to 6.00,≥ 5.00,3 to 10
"Cc1cc(C(=O)Nc2cccc([C@H](C)Sc3nncn3C)c2)ncc1Cl [Compound 34, (S)-5-Chloro-4-methyl-N-(3-(1-((4-methyl-4H-1,2,4-triazol-3-yl)thio)ethyl)phenyl)picolinamide]",5.52 to 6.00,6.00 to 6.52,≥ 6.30,0.301 to 1
"C[C@@H](Sc1nncn1C)c1ccc(F)c(NC(=O)c2cccc(C(F)(F)F)n2)c1 [Compound 95b, (R)-N-(2-fluoro-5-(1-((4-methyl-4H-1,2,4-triazol-3-yl)thio)ethyl)phenyl)-6-(trifluoromethyl)picolinamide]",< 5.00,5.00 to 5.52,≥ 5.00,
"C[C@H](Sc1nncn1C)c1ccnc(NC(=O)c2cc(C(F)(F)F)c(Cl)cn2)c1 [Compound 114, (S)-5-chloro-N-(4-(1-((4-methyl-4H-1,2,4-triazol-3-yl)thio)ethyl)pyridin-2-yl)-4-(trifluoromethyl)picolinamide]",< 5.00,5.00 to 5.52,≥ 5.00,
"C[C@H](Sc1nncn1C)c1cccc(NC(=O)c2cc(C(=O)N3CC[C@H](N)C3)ccn2)c1 [Compound 147, 4-((S)-3-aminopyrrolidine-1-carbonyl)-N-(3-((S)-1-(4-methyl-4H-1,2,4-triazol-3-ylthio)ethyl)phenyl)picolinamide]",5.00 to 5.52,5.00 to 5.52,≥ 5.00,
"C[C@@H](Cc1nncn1C)c1cccc(NC(=O)c2cc3cc(N4CCN(C)C(=O)C4)ccc3cn2)c1 [Compound 210, (S)-6-(4-methyl-3-oxopiperazin-1-yl)-N-(3-(1-(4-methyl-4H-1,2,4-triazol-3-yl)propan-2-yl)phenyl)isoquinoline-3-carboxamide 2,2,2-trifluoroacetate]",5.00 to 5.52,5.00 to 5.52,≥ 5.00,
"C[C@H](Sc1nncn1C)c1cccc(NC(=O)c2cc(C(=O)N3C[C@H](O)[C@@H](O)C3)ccn2)c1 [Compound 155, 4-[[(3S,4S)-3,4-dihydroxypyrrolidin-1-yl]carbonyl]-N-[3-[(1S)-1-[(4-methyl-4H-1,2,4-triazol-3-yl)sulfanyl]ethyl]phenyl]pyridine-2-carboxamide]",5.00 to 5.52,5.52 to 6.00,≥ 5.00,
"C[C@H](Cc1nncn1C)c1cccc(NC(=O)c2cc(C(=O)N3C[C@H](O)[C@@H](F)C3)ccn2)c1 [Compound 235, 4-[(3S,4S)-3-fluoro-4-hydroxypyrrolidine-1-carbonyl]-N-[3-[(2R)-1-(4-methyl-4H-1,2,4-triazol-3-yl)propan-2-yl]phenyl]pyridine-2-carboxamide]",5.00 to 5.52,5.52 to 6.00,≥ 5.00,
"C=CCC(Sc1nncn1C)c1cccc(NC(=O)c2cc3ccccc3cn2)c1 (stereo not shown) [Compound 135, N-[3-[1-[(4-methyl-1,2,4-triazol-3-yl)sulfanyl]but-3-enyl]phenyl]isoquinoline-3-carboxamide]",< 5.00,5.52 to 6.00,≥ 5.00,3 to 10
"Cn1cnnc1C[C@@](C)(F)c1cccc(N2Cc3c(cccc3C(F)(F)F)C2=O)c1 [Compound 298a, (R)-2-(3-(2-fluoro-1-(4-methyl-4H-1,2,4-triazol-3-yl)propan-2-yl)phenyl)-4-(trifluoromethyl)isoindolin-1-one]",5.00 to 5.52,5.52 to 6.00,≥ 5.00,
"Cc1cc(C(=O)Nc2cccc([C@H](C)Sc3nncn3C)c2)[nH]c(=O)c1 [Compound 50, (S)-4-Methyl-N-(3-(1-((4-methyl-4H-1,2,4-triazol-3-yl)thio)ethyl)phenyl)-6-oxo-1,6-dihydropyridine-2-carboxamide]",< 5.00,5.00 to 5.52,≥ 5.00,
"C[C@H](Cc1ncn(C)n1)c1cccc(N2Cc3c(cccc3C(F)(F)F)C2=O)c1 [Compound 263, (R)-2-(3-(1-(1-methyl-1H-1,2,4-triazol-3-yl)propan-2-yl)phenyl)-4-(trifluoromethyl)isoindolin-1-one]",5.00 to 5.52,5.00 to 5.52,≥ 5.00,
"C[C@H](Cc1nncn1C)c1cc(N2Cc3c(cccc3C(F)(F)F)C2=O)ccc1F [Compound 280, 2-[4-fluoro-3-[(1R)-1-methyl-2-(4-methyl-1,2,4-triazol-3-yl)ethyl]phenyl]-4-(trifluoromethyl)isoindolin-1-one]",5.52 to 6.00,5.00 to 5.52,≥ 5.00,
